{"source": "a compilation of properties of binary mixtures (doi:10.1021/acs.jced.1c00023)", "assay": "xn = mol fraction of the nth substance listed", "conditions": "101.3 kPa", "data": [{"compound": "Oc1cccc(O)c1O", "note": "+ CCCCCCCCCCCC[N+](C)(C)C.[Br-]", "values": [{"measurement": "electrical conductivity", "setting": "293.15 K, x2 = 0.333", "result": 0.0047, "unit": "S/m"}, {"measurement": "speed of sound", "setting": "293.15 K, x2 = 0.333", "result": 1614.6, "unit": "m/s"}, {"measurement": "viscosity", "setting": "293.15 K, x2 = 0.333", "result": 7500, "unit": "mPa·s"}, {"measurement": "electrical conductivity", "setting": "298.15 K, x2 = 0.333", "result": 0.0082, "unit": "S/m"}, {"measurement": "speed of sound", "setting": "298.15 K, x2 = 0.333", "result": 1592.1, "unit": "m/s"}, {"measurement": "viscosity", "setting": "298.15 K, x2 = 0.333", "result": 5650, "unit": "mPa·s"}, {"measurement": "electrical conductivity", "setting": "303.15 K, x2 = 0.333", "result": 0.0139, "unit": "S/m"}, {"measurement": "speed of sound", "setting": "303.15 K, x2 = 0.333", "result": 1572.5, "unit": "m/s"}, {"measurement": "viscosity", "setting": "303.15 K, x2 = 0.333", "result": 3900, "unit": "mPa·s"}, {"measurement": "electrical conductivity", "setting": "308.15 K, x2 = 0.333", "result": 0.0234, "unit": "S/m"}, {"measurement": "speed of sound", "setting": "308.15 K, x2 = 0.333", "result": 1554.9, "unit": "m/s"}, {"measurement": "viscosity", "setting": "308.15 K, x2 = 0.333", "result": 2300, "unit": "mPa·s"}, {"measurement": "electrical conductivity", "setting": "313.15 K, x2 = 0.333", "result": 0.0364, "unit": "S/m"}, {"measurement": "speed of sound", "setting": "313.15 K, x2 = 0.333", "result": 1538.8, "unit": "m/s"}, {"measurement": "viscosity", "setting": "313.15 K, x2 = 0.333", "result": 1500, "unit": "mPa·s"}, {"measurement": "electrical conductivity", "setting": "318.15 K, x2 = 0.333", "result": 0.0539, "unit": "S/m"}, {"measurement": "speed of sound", "setting": "318.15 K, x2 = 0.333", "result": 1523.4, "unit": "m/s"}, {"measurement": "viscosity", "setting": "318.15 K, x2 = 0.333", "result": 1000, "unit": "mPa·s"}, {"measurement": "electrical conductivity", "setting": "323.15 K, x2 = 0.333", "result": 0.0773, "unit": "S/m"}, {"measurement": "speed of sound", "setting": "323.15 K, x2 = 0.333", "result": 1508.7, "unit": "m/s"}, {"measurement": "viscosity", "setting": "323.15 K, x2 = 0.333", "result": 750, "unit": "mPa·s"}, {"measurement": "electrical conductivity", "setting": "328.15 K, x2 = 0.333", "result": 0.105, "unit": "S/m"}, {"measurement": "speed of sound", "setting": "328.15 K, x2 = 0.333", "result": 1494.3, "unit": "m/s"}, {"measurement": "viscosity", "setting": "328.15 K, x2 = 0.333", "result": 550, "unit": "mPa·s"}]}, {"compound": "Oc1cccc(O)c1O", "note": "+ CCC[N+](CCC)(CCC)CCC.[Br-]", "values": [{"measurement": "electrical conductivity", "setting": "298.15 K, x2 = 0.5", "result": 0.0031, "unit": "S/m"}, {"measurement": "speed of sound", "setting": "298.15 K, x2 = 0.5", "result": 1855.2, "unit": "m/s"}, {"measurement": "viscosity", "setting": "298.15 K, x2 = 0.5", "result": 25000, "unit": "mPa·s"}, {"measurement": "electrical conductivity", "setting": "318.15 K, x2 = 0.5", "result": 0.0259, "unit": "S/m"}, {"measurement": "speed of sound", "setting": "318.15 K, x2 = 0.5", "result": 1704.1, "unit": "m/s"}, {"measurement": "viscosity", "setting": "318.15 K, x2 = 0.5", "result": 4800, "unit": "mPa·s"}, {"measurement": "electrical conductivity", "setting": "323.15 K, x2 = 0.5", "result": 0.04, "unit": "S/m"}, {"measurement": "speed of sound", "setting": "323.15 K, x2 = 0.5", "result": 1674.1, "unit": "m/s"}, {"measurement": "viscosity", "setting": "323.15 K, x2 = 0.5", "result": 3500, "unit": "mPa·s"}, {"measurement": "electrical conductivity", "setting": "328.15 K, x2 = 0.5", "result": 0.0703, "unit": "S/m"}, {"measurement": "speed of sound", "setting": "328.15 K, x2 = 0.5", "result": 1652.9, "unit": "m/s"}, {"measurement": "viscosity", "setting": "328.15 K, x2 = 0.5", "result": 2550, "unit": "mPa·s"}]}]}
